Measured values: paper PMC4768790 (The New phytologist, 2015)

Legend:
PopP2 = PopP2 (Ralstonia pseudosolanacearum, UniProt Q8Y125); conditions: labelled compound; 50 mM HEPES pH 8.0, 30°C, 1 h
HopZ1a = HopZ1a (Pseudomonas syringae, UniProt Q6VE93); assay: in vitro autoacetylation assay, […] autoradiography; type: biochemical; conditions: 100 nM IP6, [14C]-acetyl-CoA, 50 mM HEPES pH 8.0, 30°C, 1 h; activator
Sequence of HopZ1a (Q6VE93 whole entry): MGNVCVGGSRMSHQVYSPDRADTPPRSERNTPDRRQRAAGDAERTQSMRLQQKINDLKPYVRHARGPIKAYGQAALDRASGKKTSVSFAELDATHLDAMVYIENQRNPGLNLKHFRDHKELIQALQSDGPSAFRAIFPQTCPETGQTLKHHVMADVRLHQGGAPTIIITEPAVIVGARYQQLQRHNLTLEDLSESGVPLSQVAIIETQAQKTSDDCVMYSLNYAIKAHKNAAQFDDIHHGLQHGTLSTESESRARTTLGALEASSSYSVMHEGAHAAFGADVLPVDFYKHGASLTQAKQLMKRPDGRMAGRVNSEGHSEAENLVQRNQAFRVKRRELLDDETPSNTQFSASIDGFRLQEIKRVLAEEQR

Sequence of PopP2 (Q8Y125 1-488): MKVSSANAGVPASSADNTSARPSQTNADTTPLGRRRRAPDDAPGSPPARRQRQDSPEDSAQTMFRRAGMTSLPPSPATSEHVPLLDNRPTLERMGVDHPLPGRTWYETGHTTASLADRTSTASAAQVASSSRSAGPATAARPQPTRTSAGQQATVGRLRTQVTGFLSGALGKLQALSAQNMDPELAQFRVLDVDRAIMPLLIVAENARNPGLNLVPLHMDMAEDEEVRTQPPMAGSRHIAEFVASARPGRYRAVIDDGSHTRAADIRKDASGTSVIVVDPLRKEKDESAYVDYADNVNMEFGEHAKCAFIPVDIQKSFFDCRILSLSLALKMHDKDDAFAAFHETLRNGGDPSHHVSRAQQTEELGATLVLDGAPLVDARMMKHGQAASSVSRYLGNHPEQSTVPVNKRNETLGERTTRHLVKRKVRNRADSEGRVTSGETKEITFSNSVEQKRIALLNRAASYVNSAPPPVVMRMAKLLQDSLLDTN

| SMILES | in vitro autoacetylation assay, 14C autoradiography (PopP2) | enhancement of autoacetylation by IP6 (HopZ1a) |
| --- | --- | --- |
| CC(=O)SCCNC(=O)CCNC(=O)[C@H](O)C(C)(C)COP(=O)(O)OP(=O)(O)OC[C@H]1O[C@@H](n2cnc3c(N)ncnc32)[C@H](O)[C@@H]1OP(=O)(O)O [acetyl-CoA] | the mutant PopP2(S447AS449A) is no longer autoacetylated | – |
| O=P(O)(O)O[C@H]1[C@H](OP(=O)(O)O)[C@@H](OP(=O)(O)O)[C@H](OP(=O)(O)O)[C@@H](OP(=O)(O)O)[C@H]1OP(=O)(O)O [IP6] | – | c. 40 |
